Reference: patent publication US20070117861A1, “Treatment or prevention of cardiovascular and respiratory disorders with novel substituted cyclic-amp specific phosphodiesterase inhibitors” (University of South Carolina, priority 2003, published 2007)
Each block holds one compound with its values, some of them ahead of it.

How the values were obtained:
[1] = tested on: guinea pig ventricular myocytes; assay: action potentials, nystatin-perforated whole-cell patch-clamp, ventricular myocytes; assay type: cell-based
Method: (§1) The effects of a novel synthesized cAMP specific phosphodiesterase inhibitor MS23 on action potential parameters were examined and compared with those of milrinone and rolipram in isolated guinea-pig myocytes. Action potentials (AP) were recorded under nystatin-perforated whole-cell patch-clamp mode at a temperature of 35±0.5° C. […] In comparison, rolipram (30 μM) shortened APD90 from 318.3±8.9 to 274.6±9.8 msec (P<0.05, n=3) in ventricular cells. […] In contrast, milrinone (10 μM) elongated ventricular APD90 from 287.9±10.3 msec to 327.8±17.4 msec (P<0.05, n=4) and produced a significant delay of phase 1 and plateau phase, but acceleration of phase 3 repolarization (APD90 shortened from 153.9±12.1 to 135.5±12.3 msec, P<0.05, n=4) in atrial cells.
(§2) Single myocytes were isolated by enzymatic digestion of guinea pig hearts. The animal was anesthetized by I.P. injection of pentobarbital sodium (50 mg/kg) and the heart was excised and retrogradely perfused with oxygenated Tyrode solution containing (in […]): 140 NaCl, 5.4 KCl, 1.5 MgCl2, 1.8 CaCl2, 0.33 NaH2PO4, 5.5 Glucose, 19 Hepes (pH 7.4 with NaOH at 36.5° C.). The enzymatic digestion was carried out with Ca^2+-free Tyrode solution by adding 0.4 mg/ml of collagenase type II (306 units/mg) and 1.6 mg/ml Bovine Serum Albumin V.
(§3) Transmembrane potentials were recorded under nystatin-perforted whole-cell current-clamp mode at 36.5° C. when the cells were bathed in Tyrode solution. The finished pipette had resistance of 4-7 MΩ when filled with a perforate solution containing (in mM): 140 KCl, 2 MCl2, 0.5 CaCl2, 10 Glucose, 10 Hepes (pH 7.2 with KOH), and 8.64 nM nystatin. The correction of junction potential was carried out off-line. The data acquisition was performed with an Axonpatch-200B amplifier/Digidata 1322A/Clampex 8.2 system (Axon Instrument, Inc., USA). Action potential was evoked by consecutive 10 msec rectangular current pulses at an interval of 2 seconds. APD was measured at 90% of repolarization (APD^90). The cell was held at a −40 mV membrane potential to inactivate the sodium channels. L-type calcium current was elicited by a step pulse from −40 mV to 0 mV with a duration of 300 msec.

[2] = tested on: guinea pig atrial myocytes; assay: action potentials, nystatin-perforated whole-cell patch-clamp, atrial myocytes; assay type: cell-based
Method: as §1, §2, §3

[3] = tested on: high K+ contracted porcine kidney main artery; assay: tension assay, high K+ contracted porcine kidney vessel rings; conditions: tension assay trace, FIG. 5
Method: The trachea, main bronchi and vessel rings (2-3 mm in width) of Sprague-Dawley rats, Harley Guinea Pigs and porchine were used to carry out the tension assay. The tissue rings were bathed in 3.5 ml or 30 ml tissue chamber and aired with 95% O2/5% CO2 at 37° C. The tension was measured using a tension transducer linked to a PowerLab system (ADInstruments, USA). The basal tension was set to 0.7-1.0 g step by step with a 0.1-0.2 g increment. After the base tension reached steady-state in control K-H solution, the rings were contracted for 5-10 minutes by a 70 mM high K^+ K-H solution and relaxed by switching back to normal K-H solution. The alternation between 70 mM K^+ K-H and normal K-H was repeated two more times to equilibrate the tissue before the experiment.

solubility = assay type: physicochemical
[4] = blood pressure in anesthetized dogs after intravenous bolus injection; assay type: in vivo; conditions: for Left Ventricular End Diastolic Pressure: control 8.7; for Blood Pressure Min: control 46.6; for Blood Pressure Mean: control 67.2; for Left Ventricular Systolic Pressure: control 78.5; for Blood Pressure Max: control 99.8; for Heart Rate: control 119.8, in bpm (unit assumed)
Method: This example illustrates the effect that MS23 has on blood pressure reduction through an in vivo experiment in dogs. An intravenous bolus injection of MS23 was administered to anesthetized dogs at a dose of 0.25 mg/kg.bw. […] Higher doses of MS23 produced a greater decrease in blood pressure without affecting heart rate and left ventricular end diastolic pressure.

[5] = onset of therapeutic effect after administration; assay type: in vivo
[6] = blood pressure and heart rate in anesthetized rats after oral gavage; assay type: in vivo; conditions: anesthetized female rat; for Mean Blood Pressure: saline control 186; for Heart Rate: saline control 364
Method: This example illustrates the effect that MS23 has on blood pressure reduction through an in vivo experiment. Specifically, this example illustrates the effect of an intravenous bolus injection of MS23 on blood pressure. Female Sprague-Dawley rats weighing 200-225 g were anesthetized with pentobarbital (30 mg/kg body weight (bw), i.p.). The animals were positioned supinely on a heat plate that was controlled by an automatic temperature controller system (TC-324B, Warner Instrument Corp.) to maintain its body temperature constant (36° ±0.5° C.) during the experiment. The trachea, right carotid artery, and left femoral vein were exposed. The trachea was cannulated and the animal was breathed with air through a respirator at a rate of 65-70/min and an inspiration pressure of approximately 10 cm H2O. PE catheters were implanted into the carotid artery and femoral vein, respectively. The animal was heparinized by i.v. injection of approximately 300 units of heparin dissolved in 0.3 ml of 0.9% saline. Arterial pressure was recorded from the carotid artery catheter connected to a physiological pressure transducer (SP 844, Capto Company, Norway) that was coupled to a bridge amplifier (PowerLab, ADInstruments). The data was digitized through a 16 SP interface and acquire on-line with Chart 4.0 software (PowerLab, ADInstruments) and stored to a personal computer.
MS23 was administered to two female rats via oral gavage at a dose of 26 and 80 mg/kg.bw, respectively. The agent was dissolved in 0.9% saline in a volume of 0.5 ml. The same volume of saline alone was administered to two control animals. After 15 minutes, the animal was anesthetized with pentobarbital (30 mg/kg.bw, i.p.) and same surgery was performed except that the femoral vein was not exposed and there was no i.v. administration of the test agent. The carotid blood pressure and heart rate were monitored and recorded for 60 minutes using the same method described above. The initial recording was made within 45 to 65 minutes after performing oral gavage. The results are reported in the following Table 1 (the MBP and HR were measured within 30 minutes after the surgery).

PDE5 = PDE5 (Homo sapiens, UniProt O76074); conditions: ratio of cited IC50 values
Method: PDE inhibition is then determined by the presence or absence of substrate degradation products. […] The relative ability of an inhibitory compound to slow or prevent the degradation of tritiated cyclic nucleotides is one test that is indicative of how well the compound in question selects one or more of each isoform to inhibit.

PDE1 = conditions: reported in Hatzelmann et al. 2001; read-out: IC50 for roflumilast activity on PDE1; cited from earlier work
PDE-4 = tested on: T1, PDE-4; conditions: reported in Hatzelmann et al. 2001; read-out: IC50 for roflumilast activity on PDE-4; cited from earlier work
T1 construct: other: reported in Hatzelmann et al. 2001

SMILES: Cc1[nH]c(=O)c(C#N)cc1-c1ccncc1 [milrinone]
effect on APD90 ([1]; ventricular cells, 10 μM, after treatment with either rolipram or MS23): markedly shortened
APD90 ([1]; ventricular cells, 10 μM, before drug 287.9±10.3 msec, P<0.05, n=4): 327.8 ± 17.4 ms
APD90 ([2]; atrial cells, 10 μM, before drug 153.9±12.1 msec, P<0.05, n=4): 135.5 ± 12.3 ms

SMILES: CCN(CC)CC(=O)Nc1c(C)cccc1C [Lidocaine]
effect on tension of high K+ contracted porcine kidney main artery [3]: did not relax

solubility in physiological saline (solubility): soluble
prolongation of ventricular APD ([1]; from 1 to 100 μM): did not prolong
prolongation of atrial APD ([2]; from 1 to 100 μM): did not prolong
SMILES: CCCN(CC)C(C)C(=O)Nc1[nH]c(CCSC)c(C)c1C(N)=O (stereo not shown) [MS23]
Left Ventricular End Diastolic Pressure ([4]; Bolus 1 mg/kg·bw): 9.0
Blood Pressure Min ([4]; Bolus 1 mg/kg·bw): 39.8
Blood Pressure Mean ([4]; Bolus 1 mg/kg·bw): 58.4
Left Ventricular Systolic Pressure ([4]; Bolus 1 mg/kg·bw): 71.8
Blood Pressure Max ([4]; Bolus 1 mg/kg·bw): 90.5 mmHg
Heart Rate ([4]; Bolus 1 mg/kg·bw): 118.2
Left Ventricular End Diastolic Pressure ([4]; Bolus 2 mg/kg·bw): 9.2
Blood Pressure Min ([4]; Bolus 2 mg/kg·bw): 33.7
Blood Pressure Mean ([4]; Bolus 2 mg/kg·bw): 48.0
Left Ventricular Systolic Pressure ([4]; Bolus 2 mg/kg·bw): 63.1
Blood Pressure Max ([4]; Bolus 2 mg/kg·bw): 76.8 mmHg
Heart Rate ([4]; Bolus 2 mg/kg·bw): 109.7
reduction in blood pressure ([4]; intravenous bolus 0.25 mg/kg.bw): 4 mmHg
onset of therapeutic effect (response occurs) ([5]; after intraperitoneal administration): < 3 min
onset of therapeutic effect (response occurs) ([5]; after oral gavage): ≤ 30 min
APD90 (action potential duration at 90% of repolarization) ([1]; ventricular cells, 30 μM, before drug 304.9±24.0 msec, P<0.05, n=8): 254.9 ± 28.4 ms
effect on APD ([2]; atrial cells, 30 μM): no effect
Mean Blood Pressure ([6]; oral gavage 26 mg/kg·bw): 156 mm Hg
Heart Rate ([6]; oral gavage 26 mg/kg·bw): 384 beat/min
Mean Blood Pressure ([6]; oral gavage 80 mg/kg·bw): 126 mm Hg
Heart Rate ([6]; oral gavage 80 mg/kg·bw): 300 beat/min

SMILES: NC[C@H](O)c1ccc(O)c(O)c1 [Norepinephrine]
effect on tension of high K+ contracted porcine kidney main artery [3]: contracted

SMILES: O=C(Nc1c(Cl)cncc1Cl)c1ccc(OC(F)F)c(OCC2CC2)c1 [roflumilast]
selectivity for PDE-4 as compared with PDE5 (PDE5 IC50/PDE-4 IC50) (PDE5): at least 10,000
IC50 (PDE1): > 10000 nM
IC50 (PDE-4): 0.8 nM

SMILES: COc1ccc(C2CNC(=O)C2)cc1OC1CCCC1 (stereo not shown) [rolipram, reference compound]
APD90 ([1]; ventricular cells, 30 μM, before drug 318.3±8.9 msec, P<0.05, n=3): 274.6 ± 9.8 ms
effect on action potential phases ([2]; atrial cells, 30 μM): small delay of phase 1 and plateau phase, but acceleration of phase 3 repolarization
